# Assay results as given in patent US10975287B2, “Heterocyclic amides useful as protein modulators” (GlaxoSmithKline Intellectual Property Development Limited, priority 2017, dated 2021).
# Where two headings read alike, the source gives them in different places.
# Key:
# [1] = system: C-terminal Domain (CTD) of human STING; conditions: 500 pM STING, 100 nM Alexa488 probe, 15 min at room temperature
# Full-length human STING = system: T1, Full-length human STING; type: cell-based
# T1 construct: Full-length human STING (Gene ID 340061); expressed in transfected cells; host or cells: HEK293T
# Experimental: Functional Assay III (HEX WT agonist assay): Activation of STING in cells may be determined using a luciferase reporter assay in human embryonic kidney cells (HEK293T) co-transfected with plasmids expressing STING and the enzyme firefly luciferase driven by the interferon stimulated response element promoter (pISRE-Luc) (Agilent Technologies). […] Transfections were prepared using a cell suspension with Fugene® 6 following the manufacturer's instructions (3:1 Fugene®:DNA). […] of the transfection suspension was dispensed into wells of a 384-well plate containing 250 nL of a compound of Formula (I). […] Control wells expected to generate maximal activation of STING were cotransfected with a cGAS expression plasmid. Plates were sealed and incubated for 24 hours at 37° C. The expression of firefly luciferase was processed using Steady-Glo® luciferase assay system (Promega) and was analyzed using a standard laboratory luminescence plate reader. Data was normalized to luminescence response in the presence of cGAS, was plotted as a function of compound concentration, and fit using a standard model of receptor activation to derive the pEC50.
# [2] = HEK293T co-transfected with STING and pISRE-Luc, 24 hours at 37° C., normalized to cGAS response
Structure (SMILES),FRET assay (pIC50) [1],HEK assay (pEC50) (Full-length human STING),HEK assay (pEC50) (Full-length human STING; [2])
"CCCn1c(NC(=O)c2cc(C)nn2CC)nc2c(OC)c(C(N)=O)ccc21 [Example 30, 2-(1-ethyl-3-methyl-1H-pyrazole-5-carboxamido)-4-methoxy-1-propyl-1H-benzo[d]imidazole-5-carboxamide]",5.0,,
"CCn1nc(C)cc1C(=O)Nc1nc2cc(C(N)=O)cc(OC)c2n1CCCNC(=O)OCc1ccccc1 [Example 53, benzyl (3-(5-carbamoyl-2-(1-ethyl-3-methyl-1H-pyrazole-5-carboxamido)-7-methoxy-1H-benzo[d]imidazol-1-yl)propyl)carbamate]",,6.2,
"CCn1nc(C)cc1C(=O)Nc1nc2cc(C(N)=O)cc(OC)c2n1CCC(C)C [Example 27, (1-ethyl-3-methyl-1H-pyrazole-5-carboxamido)-1-isopentyl-7-methoxy-1H-benzo[d]imidazole-5-carboxamide]",,,5.5
"C=CCn1c(NC(=O)c2cc(C)nn2CC)nc2cc(C(N)=O)ccc21 [Example 2, 1-allyl-2-(1-ethyl-3-methyl-1H-pyrazole-5-carboxamido)-1H-benzo[d]imidazole-5-carboxamide]",4.6,,4.5
"CCCn1c(NC(=O)c2cc(C)nn2CC)nc2cc(C(N)=O)cc(CN3CCOCC3)c21 [Example 41, 2-(1-ethyl-3-methyl-1H-pyrazole-5-carboxamido)-7-(morpholinomethyl)-1-propyl-1H-benzoylimidazole-5-carboxamide]",5.4,,
"CCn1nc(C)cc1C(=O)Nc1nc2cc(C(N)=O)cc(OC)c2n1CCCCNC(=O)OC(C)(C)C [Example 17, tert-butyl (4-(5-carbamoyl-2-(1-ethyl-3-methyl-1H-pyrazole-5-carboxamido)-7-methoxy-1H-benzo[d]imidazol-1-yl)butyl)carbamate]",,,6.1
"CCn1nc(C)cc1C(=O)Nc1nc2cc(C(N)=O)cc(OC)c2n1CCCc1cccnc1 [Example 50, 2-(1-ethyl-3-methyl-1H-pyrazole-5-carboxamido)-7-methoxy-1-(3-(pyridin-3-yl)propyl)-1H-benzoylimidazole-5-carboxamide]",5.3,,
"CCn1nc(C)cc1C(=O)Nc1nc2cc(C(N)=O)cc(OC(C)C)c2n1CCCN1CCOCC1 [Example 37, 2-(1-ethyl-3-methyl-1H-pyrazole-5-carboxamido)-7-isopropoxy-1-(3-morpholinopropyl)-1H-benzo[d]imidazole-5-carboxamide]",5.5,,
"CCn1nc(C)cc1C(=O)Nc1nc2cc(C(N)=O)ccc2n1C [Example 1, 2-(1-ethyl-3-methyl-1H-pyrazole-5-carboxamido)-1-methyl-1H-benzo[d]imidazole-5-carboxamide]",4.4,,4.4
"CCCCn1c(NC(=O)c2cc(C)nn2CC)nc2cc(C(N)=O)cc(OC)c21 [Example 24, 1-butyl-2-(1-ethyl-3-methyl-1H-pyrazole-5-carboxamido)-7-methoxy-1H-benzo[d]imidazole-5-carboxamide]",,,6.0
"C=CCn1c(NC(=O)c2cc(C)nn2CC)nc2cc(C(N)=O)cc(OC)c21 [Example 14, 1-allyl-2-(1-ethyl-3-methyl-1H-pyrazole-5-carboxamido)-7-methoxy-1H-benzo[d]imidazole-5-carboxamide]",<3.9,,5.6
"CCn1nc(C)cc1C(=O)Nc1nc2cc(C(N)=O)cc(OC)c2n1CCCN1CCOCC1 [Example 9, 2-(1-ethyl-3-methyl-1H-pyrazole-5-carboxamido)-7-methoxy-1-(3-morpholinopropyl)-1H-benzo[d]imidazole-5-carboxamide]",5.1,,5.1
"CCCn1c(NC(=O)c2cc(C)nn2CC)nc2cc(C(N)=O)cc(OCCCO)c21 [Example 13, 2-(1-ethyl-3-methyl-1H-pyrazole-5-carboxamido)-7-(3-hydroxypropoxy)-1-propyl-1H-benzo-[d]imidazole-5-carboxamide]",,,5.4
"CCCn1c(NC(=O)c2cc(C)nn2CC)nc2cc(C(N)=O)cc(OC)c21 [Example 3, 2-(1-ethyl-3-methyl-1H-pyrazole-5-carboxamido)-7-methoxy-1-propyl-1H-benzo[d]imidazole-5-carboxamide]",5.5,,6
"C=CCn1c(NC(=O)c2cc(C)nn2CC)nc2cc(C(N)=O)cc(OCCCO)c21 [Example 4, 1-Allyl-2-(1-ethyl-3-methyl-1H-pyrazole-5-carboxamido)-7-(3-hydroxypropoxy)-1H-benzoylimidazole-5-carboxamide]",4.9,,4.5
"CCCn1c(NC(=O)c2cc(CC)nn2CC)nc2cc(C(N)=O)cc(OC)c21 [Example 57, 2-(1,3-diethyl-1H-pyrazole-5-carboxamido)-7-methoxy-1-propyl-1H-benzo[d]imidazole-5-carboxamide]",,,5.5
